# From BindingDB's records for PubMed 38714043 (Sichuan University)
# Biological target: T1, Tyrosine-protein kinase receptor UFO (Homo sapiens, UniProt P30530)
# T1 sequence (P30530 whole entry): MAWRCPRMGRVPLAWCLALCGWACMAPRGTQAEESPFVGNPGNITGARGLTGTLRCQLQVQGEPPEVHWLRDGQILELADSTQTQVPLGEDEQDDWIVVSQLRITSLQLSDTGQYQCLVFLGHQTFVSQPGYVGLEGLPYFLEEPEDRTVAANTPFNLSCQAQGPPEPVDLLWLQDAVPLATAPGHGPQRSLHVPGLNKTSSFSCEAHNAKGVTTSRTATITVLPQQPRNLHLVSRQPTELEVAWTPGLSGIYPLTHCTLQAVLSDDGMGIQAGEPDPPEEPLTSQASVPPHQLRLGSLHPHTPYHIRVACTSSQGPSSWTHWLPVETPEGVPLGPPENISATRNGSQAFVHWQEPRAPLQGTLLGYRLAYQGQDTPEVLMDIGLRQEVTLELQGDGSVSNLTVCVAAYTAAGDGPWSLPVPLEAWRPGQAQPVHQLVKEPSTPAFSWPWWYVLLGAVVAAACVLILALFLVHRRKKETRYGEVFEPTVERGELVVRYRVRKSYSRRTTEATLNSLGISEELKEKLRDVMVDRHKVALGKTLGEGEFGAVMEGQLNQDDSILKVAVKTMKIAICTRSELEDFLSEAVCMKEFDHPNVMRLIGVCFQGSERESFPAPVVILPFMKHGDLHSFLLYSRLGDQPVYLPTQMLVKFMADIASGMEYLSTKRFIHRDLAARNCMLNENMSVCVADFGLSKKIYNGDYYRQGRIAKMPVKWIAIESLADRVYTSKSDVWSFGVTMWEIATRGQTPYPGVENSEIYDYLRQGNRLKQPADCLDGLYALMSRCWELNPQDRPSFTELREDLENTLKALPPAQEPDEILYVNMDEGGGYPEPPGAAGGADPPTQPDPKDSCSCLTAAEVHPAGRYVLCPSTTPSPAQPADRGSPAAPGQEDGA
# Test: Inhibition of AXL (unknown origin)
smiles,measurement,value
COc1cc2ncnc(Oc3ccc(NC(=O)c4c5n(n(-c6ccccc6)c4=O)CCCC5)cc3)c2cc1OC,IC50,44 nM
